Data published in patent publication US20250188103A1, “HETEROCYCLIC GLP-1 AGONISTS” (Gasherbrum Bio, Inc., priority 2022, published 2025).

Molecular target: T1, GLP-1 Receptor (Homo sapiens, UniProt P43220)
T1 construct: HD Biosciences / HDB (Method 3); host or cells: CHO-K1 (Methods 1, 2) or HEK293/CRE-Luc (Method 3)
Test: GLP-1R agonist cAMP stimulation assay
Format: cell-based
Settings: cells stably expressing the GLP-1 Receptor (method not given)
Method: Activation of GLP-1 receptor is known to stimulate cyclic AMP (cAMP) production in cells which indicates primary coupling to the Gas subunit of the G protein heterotrimeric complex.
Method 1: To optimize functional activity directed toward Gas coupling, a CHO-K1 cell line developed by DiscoverX stably expressing the GLP-1 Receptor is used. Cells expressing GLP-1 receptor are plated in a 384-well microtiter plates and incubated overnight at 37° C. with 5% CO2 to allow the cells to attach and grow. Media is then aspirated from the cells and replaced with 15 μL Hanks Balanced Salt Solution (HBSS)/5 mM Hepes:0.5 mM IBMX 0.1% BSA (pH 7.4) [Stimulation Buffer]. […] previously generated compound sample stocks at 4× final concentration in Stimulation Buffer are then added to the cells and allowed to incubate at 37° C. for 30 or 60 minutes.
After incubation the assay signal is generated using a europium chelate-labeled cAMP tracer which competes with cAMP for binding sites on a cAMP-specific monoclonal antibody labeled with ULight™ dye. When antibodies are bound to the Eu-labeled cAMP tracer FRET transfer between the Eu chelate and ULight™ labeled antibodies is detected. Free cAMP produced from stimulated cells competes with the Eu-cAMP tracer for binding to the ULight™-mAb causing a decrease in the TR-FRET signal in a dose dependent manner.
The method for detection of cAMP using the Eu-chelate technology requires incubation with Eu-cAMP tracer solution+ULight™-anti-cAMP solution for one hour at room temperature. Microplates are read following signal generation with a PerkinElmer Envision instrument utilizing TR-FRET signal detection. Percentage activity is calculated using the following formula: […]
Method 2: To optimize functional activity directed toward Gas coupling, a CHO-K1 cell line developed by DiscoverX stably expressing the GLP-1 Receptor is used. Cells expressing GLP-1 receptor are plated in a 384-well microtiter plates and incubated overnight at 37° C. with 5% CO2 to allow the cells to attach and grow. Media is then aspirated from the cells and replaced with 15 μL 2:1 Hanks Balanced Salt Solution (HBSS)/10 mM Hepes: cAMP XS+Ab reagent. Five microliters (5 μL) of previously generated compound sample stocks at 4× final concentration in assay buffer are then added to the cells and allowed to incubate at 37° C. for 30 or 60 minutes.
After incubation the assay signal is generated using enzyme fragment complementation (EFC). In EFC, the enzyme B-galactosidase is split into two complementary portions (EA and ED). The fragment ED is fused to cAMP and in the assay format competes with endogenous cAMP for binding to a cAMP specific antibody. Activated B-Gal is formed when exogenous EA fragment binds to free ED-cAMP (not bound to cAMP specific antibody). Activated enzyme levels are detected through conversion of B-gal chemiluminescent substrate which generates a detectable luminescence signal and read on standard microtiter plate.
The methodology for detection of cAMP using EFC requires incubation with 20 μL of cAMP XS+ED/CL lysis cocktail for one hour followed by incubation with 20 μL cAMP XS+EA reagent for three hours at room temperature. Microplates are read following signal generation with a PerkinElmer Envision instrument utilizing chemiluminescent signal detection. Compound activity is analyzed using CBIS data analysis suite (ChemInnovation, CA). Percentage activity is calculated using the following formula: […]
Method 3: Activation of GLP-1 receptor is known to stimulate cyclic AMP (cAMP) production in cells which indicates primary coupling to the Gas subunit of the G protein heterotrimeric complex.
To optimize functional activity directed toward Gas coupling, a HEK293/CRE-Luc cell line developed by HDB stably expressing the GLP-1 Receptor was used. […]

T1 sequence (P43220 24-463): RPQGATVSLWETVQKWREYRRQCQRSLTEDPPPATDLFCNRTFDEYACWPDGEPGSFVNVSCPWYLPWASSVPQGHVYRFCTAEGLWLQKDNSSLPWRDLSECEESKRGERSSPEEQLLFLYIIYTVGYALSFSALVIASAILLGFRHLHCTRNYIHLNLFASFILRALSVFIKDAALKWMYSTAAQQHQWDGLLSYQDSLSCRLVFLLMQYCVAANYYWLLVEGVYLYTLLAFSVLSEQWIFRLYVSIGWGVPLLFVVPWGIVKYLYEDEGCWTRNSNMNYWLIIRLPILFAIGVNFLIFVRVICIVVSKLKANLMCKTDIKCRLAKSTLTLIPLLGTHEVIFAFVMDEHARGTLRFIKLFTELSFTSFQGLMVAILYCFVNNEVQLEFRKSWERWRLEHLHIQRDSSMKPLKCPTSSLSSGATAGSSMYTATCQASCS

SMILES | EC50
CNc1cc(-n2ccn(-c3c4c(nn3-c3cc(C)c(F)c(C)c3)CCN(C(=O)c3cc5cc(C6CCOCC6)ccn5c3C3(c5noc(=O)[nH]5)CC3)[C@H]4C)c2=O)ccc1P(C)(C)=O [Compound 3] | 0.07 nM
CNc1cc(-n2ccn(-c3c4c(nn3-c3ccc(F)c(C5CC5)c3)CCN(C(=O)c3cc5cc(C6CCOCC6)ccn5c3C3(c5noc(=O)[nH]5)CC3)[C@H]4C)c2=O)ccc1P(C)(C)=O [Compound 4] | 0.085 nM
CCP(=O)(CC)c1ccc(-n2ccn(-c3c4c(nn3-c3ccc(F)c(C5CC5)c3)CCN(C(=O)c3cc5cc(C6CCOCC6)ccn5c3C3(c5noc(=O)[nH]5)CC3)[C@H]4C)c2=O)cc1NC [Compound 5] | 0.11 nM
[2H]C([2H])([2H])Nc1cc(-n2ccn(-c3c4c(nn3-c3ccc(F)c(C5CC5)c3)CCN(C(=O)c3cc5cc(C6CCOCC6)ccn5c3C3(c5noc(=O)[nH]5)CC3)[C@H]4C)c2=O)ccc1P(C)(C)=O [Compound 6] | 0.089 nM
CCP(=O)(CC)c1ccc(-n2ccn(-c3c4c(nn3-c3cc(C)c(F)c(C)c3)CCN(C(=O)c3sc5cc(C6CCOCC6)ccc5c3C3(c5noc(=O)[nH]5)CC3)[C@H]4C)c2=O)cc1NC [Compound 18, 3-(1-{2-[(4S)-3-{3-[4-(diethylphosphoryl)-3-(methylamino)phenyl]-2-oxo-2,3-dihydro-1H-imidazol-1-yl}-2-(4-fluoro-3,5-dimethylphenyl)-4-methyl-2H,4H,5H,6H,7H-pyrazolo[4,3-c]pyridine-5-carbonyl]-6-(oxan-4-yl)-1-benzothiophen-3-yl}cyclopropyl)-4,5-dihydro-1,2,4-oxadiazol-5-one] | 0.061 nM
CCP(=O)(CC)c1ccc(-n2ccn(-c3c4c(nn3-c3cc(C)c(F)c(C)c3)CCN(C(=O)c3oc5cc(C6CCOCC6)ccc5c3C3(c5noc(=O)[nH]5)CC3)[C@H]4C)c2=O)cc1NC [Compound 19, 3-(1-{2-[(4S)-3-{3-[4-(diethylphosphoryl)-3-(methylamino)phenyl]-2-oxo-2,3-dihydro-1H-imidazol-1-yl}-2-(4-fluoro-3,5-dimethylphenyl)-4-methyl-2H,4H,5H,6H,7H-pyrazolo[4,3-c]pyridine-5-carbonyl]-6-(oxan-4-yl)-1-benzofuran-3-yl}cyclopropyl)-4,5-dihydro-1,2,4-oxadiazol-5-one] | 0.049 nM
CCP(=O)(CC)c1ccc(-n2ccn(-c3c4c(nn3-c3cc(C)c(F)c(C)c3)CCN(C(=O)c3cn5cc(C6CCOCC6)ccc5c3C3(c5noc(=O)[nH]5)CC3)[C@H]4C)c2=O)cc1NC [Compound 20, 3-(1-{2-[(4S)-3-{3-[4-(diethylphosphoryl)-3-(methylamino)phenyl]-2-oxo-2,3-dihydro-1H-imidazol-1-yl}-2-(4-fluoro-3,5-dimethylphenyl)-4-methyl-2H,4H,5H,6H,7H-pyrazolo[4,3-c]pyridine-5-carbonyl]-6-(oxan-4-yl)indolizin-1-yl}cyclopropyl)-4,5-dihydro-1,2,4-oxadiazol-5-one] | 0.03 nM
CCP(=O)(CC)c1ccc(-n2ccn(-c3c4c(nn3-c3cc(C)c(F)c(C)c3)CCN(C(=O)c3cc5cc(C6CCOCC6)ccn5c3C3(c5noc(=O)[nH]5)CC3)[C@H]4C)c2=O)cc1NC [Compound 21, 3-(1-{2-[(4S)-3-{3-[4-(diethylphosphoryl)-3-(methylamino)phenyl]-2-oxo-2,3-dihydro-1H-imidazol-1-yl}-2-(4-fluoro-3,5-dimethylphenyl)-4-methyl-2H,4H,5H,6H,7H-pyrazolo[4,3-c]pyridine-5-carbonyl]-7-(oxan-4-yl)indolizin-3-yl}cyclopropyl)-4,5-dihydro-1,2,4-oxadiazol-5-one] | 0.02 nM
CCP(=O)(CC)c1ccc(-n2ccn(-c3c4c(nn3-c3cc(C)c(F)c(C)c3)CCN(C(=O)c3nn5cc(C6CCOCC6)cnc5c3C3(c5noc(=O)[nH]5)CC3)[C@H]4C)c2=O)cc1NC [Compound 24] | 0.18 nM
CCP(=O)(CC)c1ccc(-n2ccn(-c3c4c(nn3-c3cc(C)c(F)c(C)c3)CCN(C(=O)c3cc5cc(C6CCOCC6)cnn5c3C3(c5noc(=O)[nH]5)CC3)[C@H]4C)c2=O)cc1NC [Compound 26, 3-(1-{6-[(4S)-3-{3-[4-(diethylphosphoryl)-3-(methylamino)phenyl]-2-oxo-2,3-dihydro-1H-imidazol-1-yl}-2-(4-fluoro-3,5-dimethylphenyl)-4-methyl-2H,4H,5H,6H,7H-pyrazolo[4,3-c]pyridine-5-carbonyl]-3-(oxan-4-yl)pyrrolo[1,2-b]pyridazin-7-yl}cyclopropyl)-4,5-dihydro-1,2,4-oxadiazol-5-one] | 0.014 nM
CCP(=O)(CC)c1ccc(-n2ccn(-c3c4c(nn3-c3cc(C)c(F)c(C)c3)CCN(C(=O)c3[nH]c5cc(C6CCOCC6)ccc5c3C3(c5noc(=O)[nH]5)CC3)[C@H]4C)c2=O)cc1NC [Compound 28, 3-(1-{2-[(4S)-3-{3-[4-(diethylphosphoryl)-3-(methylamino)phenyl]-2-oxo-2,3-dihydro-1H-imidazol-1-yl}-2-(4-fluoro-3,5-dimethylphenyl)-4-methyl-2H,4H,5H,6H,7H-pyrazolo[4,3-c]pyridine-5-carbonyl]-6-(oxan-4-yl)-1H-indol-3-yl}cyclopropyl)-2,5-dihydro-1,2,4-oxadiazol-5-one] | 0.033 nM
CCP(=O)(CC)c1ccc(-n2ccn(-c3c(-c4cc(C)c(F)c(C)c4)nn4c3C(C)N(C(=O)c3nc5cc(C6CCOCC6)ccn5c3C3(c5noc(=O)[nH]5)CC3)CC4)c2=O)cc1NC (stereo not shown) [Compound 29] | 29 nM
CCP(=O)(CC)c1ccc(-n2ccn(-c3c(-c4cc(C)c(F)c(C)c4)nn4c3C(C)N(C(=O)c3sc5cc(C6CCOCC6)ccc5c3C3(c5noc(=O)[nH]5)CC3)CC4)c2=O)cc1NC (stereo not shown) [Compound 30] | 0.32 nM
